Columns and labels:
MMP-12 = molecular target: T1, MMP-12 (Mus musculus, UniProt P34960); assay: MMP-12 enzyme activity after SCI in mice (SensoLyte 520 fluorimetric assay); type: in vivo; conditions: for suppression of MMP-12 activity in CSF / suppression of MMP-12 activity in serum / suppression of MMP-12 activity in spinal cord tissues: DC injury; for suppression of MMP-12 activity in spinal cord tissues: lowest most effective dose
T1 construct: from tissue; host or cells: mouse spinal cord lesion site homogenate, serum and CSF
Method: (§1) For oral delivery of AZD1236, n=6 adult male C57BL6 mice/group (Charles River, Margate, UK) were randomly allocated to either: (1), Sham (control; partial laminectomy but no DC crush injury); (2), DC crush injury+vehicle (partial laminectomy followed by DC crush injury and injection of vehicle); (3), DC crush injury+100 mg/kg AZD1236; (4), DC crush injury+200 mg/kg AZD1236; and (5), DC crush injury+300 mg/kg AZD1236. For intrathecal (it) delivery of AZD1236, adult male C57BL6 mice (25-30 g) (Charles River, Margate, UK) were randomly allocated to either: (1), Sham (control; partial laminectomy but no DC crush injury); (2), DC crush injury+vehicle (partial laminectomy followed by DC crush injury and injection of vehicle); (3), DC crush injury+2.5 mg/kg AZD1236; (4), DC crush injury+5 mg/kg AZD1236; and (5), DC crush injury+10 mg/kg AZD1236. For intrathecal delivery an indwelling atlanto-occipital intrathecal catheter was inserted into the intrathecal space, as described previously (F. A. Oladosu, B. P. Ciszek, S. C. O'Buckley, A. G. Nackley, Novel intrathecal and subcutaneous catheter delivery systems in the mouse. J Neurosci Methods 264, 119-128 (2016)). Briefly, with mice in the sternal recumbency a small incision was made at the nape of the neck followed by detachment of the muscles on either side of the external occipital crest to expose the A-O membrane. The membrane was incised and a 6 cm Alzet mouse intrathecal catheter (Alzet, Cupertino, Calif., USA) and polyurethane segments were gently guided 2.5 cm into the intrathecal space. The catheter was secured using 4-0 silk sutures (Oasis Medical, IL) and the exposed end of the catheter was sealed off with a stainless-steel plug and affixed to the upper back. Animals were injected immediately with vehicle or AZD1236 followed by a 10 μl PBS catheter flush. Injections were repeated every twice daily for the first 3 days after injury and drugs and vehicle reagents were delivered over 1 min time period using a Hamilton microlitre syringe (Hamilton Co, USA). Where specified intact animals with no surgical procedures were also used. All lesions were administered under 5% isofluorane induced inhalation anaesthesia, with 1.51/min O2. Pre- and post-injury analgesia was also provided.
DC crush injury was administered bilaterally at the T8 vertebral level as described previously (S. Surey, M. Berry, A. Logan, R. Bicknell, Z. Ahmed, Differential cavitation, angiogenesis and wound-healing responses in injured mouse and rat spinal cords. Neuroscience 275, 62-80 (2014); M. L. Read, S. Mir, R. Spice, R. J. Seabright, E. L. Suggate, Z. Ahmed, M. Berry, A. Logan, Profiling RNA interference (RNAi)-mediated toxicity in neural cultures for effective short interfering RNA design. J Gene Med 11, 523-534 (2009)). Briefly, calibrated watchmaker's forceps were separated by 0.5 mm and inserted through the dorsal cord meninges to a depth of 0.45 mm in mice and separated by 1 mm and inserted through the dorsal cord meninges to a depth of 1.0 mm in rats, and the DC were crushed for 3 seconds. AZD1236 or vehicle was administered twice daily by oral gavage or intrathecally, either immediately for the first 3 days or 24 hours after injury and treating twice daily until day 4 (i.e. 3 days of AZD1236 dosing). All experiments were performed with n=6 mice/group and repeated on at least 2-3 independent occasions (total=12-18 animals/group/test).
CC SCI was administered at the T7-T8 vertebral level after exposure of T6-T9 by laminectomy. […]

IL-1β, TNF-α and IL-6 = assay: qRT-PCR of proinflammatory pain markers after DC injury in mice; type: in vivo, mouse; conditions: for injury-induced rise of proinflammatory pain markers IL-1β, TNF-α and IL-6: 3d after DC injury
Method: as §1, with “The catheter was secured using 4-0 silk sutures (Oasis Medical, IL) and the exposed end of the catheter was sealed off with a stainless-steel plug and affixed to the upper back. Animals were injected immediately with vehicle or AZD1236 followed by a 10 μl PBS catheter flush. Injections were repeated every twice daily for the first 3 days after injury and drugs and vehicle reagents were delivered over 1 min time period using a Hamilton microlitre syringe (Hamilton Co, USA). Where specified intact animals with no surgical procedures were also used. All lesions were administered under 5% isofluorane induced inhalation anaesthesia, with 1.51/min O2. Pre- and post-injury analgesia was also provided.” left out
DC crush injury was administered bilaterally at the T8 vertebral level as described previously (S. Surey, M. Berry, A. Logan, R. Bicknell, Z. Ahmed, Differential cavitation, angiogenesis and wound-healing responses in injured mouse and rat spinal cords. Neuroscience 275, 62-80 (2014); M. L. Read, S. Mir, R. Spice, R. J. Seabright, E. L. Suggate, Z. Ahmed, M. Berry, A. Logan, Profiling RNA interference (RNAi)-mediated toxicity in neural cultures for effective short interfering RNA design. J Gene Med 11, 523-534 (2009)). […]

[1] = optimal doses, 24 h delay vs immediate

T1 sequence (P34960 110-473): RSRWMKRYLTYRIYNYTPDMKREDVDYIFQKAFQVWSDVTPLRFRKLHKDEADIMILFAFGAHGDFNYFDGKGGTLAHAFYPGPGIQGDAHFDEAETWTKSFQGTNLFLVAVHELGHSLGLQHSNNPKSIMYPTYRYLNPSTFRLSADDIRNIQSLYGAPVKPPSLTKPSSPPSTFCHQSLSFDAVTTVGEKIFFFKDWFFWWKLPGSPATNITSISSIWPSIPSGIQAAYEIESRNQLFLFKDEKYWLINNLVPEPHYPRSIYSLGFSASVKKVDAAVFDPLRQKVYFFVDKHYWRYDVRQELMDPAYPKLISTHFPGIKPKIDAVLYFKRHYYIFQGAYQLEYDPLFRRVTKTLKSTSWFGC

## C[C@]1(CS(=O)(=O)N2CC=C(C#Cc3cnc(C4CC4)nc3)CC2)NC(=O)NC1=O [AZD1236]
MMP-12; intrathecal delivery
  suppression of MMP-12 activity in CSF: 90±1%
  suppression of MMP-12 activity in serum: 71±1%
MMP-12; intrathecal
  suppression of MMP-12 activity in spinal cord tissues: 86±4%
MMP-12; oral delivery, 200 mg/kg
  suppression of MMP-12 activity in CSF: 69±3%
  suppression of MMP-12 activity in serum: 90±3%
MMP-12; oral
  suppression of MMP-12 activity in spinal cord tissues: 85±3%
MMP-12; injury site, oral dosing withdrawn after 3 d
  time for MMP-12 activity to return to DC+Vehicle injury levels after withdrawal: 5 days
MMP-12; [1]
  MMP-12 activity, 24-h delayed treatment: equally as effective as immediate delivery
IL-1β, TNF-α and IL-6; intrathecal, 5 mg/kg
  injury-induced rise of proinflammatory pain markers IL-1β, TNF-α and IL-6: reduced them to sham-treated levels
IL-1β, TNF-α and IL-6; [1]
  proinflammatory cytokines, 24-h delayed treatment: equally as effective as immediate delivery
IL-1β, TNF-α and IL-6; oral, 200 mg/kg
  injury-induced rise of proinflammatory pain markers IL-1β, TNF-α and IL-6: reduced them to sham-treated levels

From patent US20230255943A1, “MMP-9 AND MMP-12 INHIBITION FOR TREATING SPINAL CORD INJURY OR RELATED INJURY TO NEUROLOGICAL TISSUE” (The University of Birmingham, priority 2020, published 2023)
